For one compound, Activity, inhibition and IC50 results are on record in ChEMBL document CHEMBL5625254, “Design, synthesis and evaluation of ursodeoxycholic acid-cinnamic acid hybrids as potential anti-inflammatory agents by inhibiting Akt/NF-κB and MAPK signaling pathways” (Eur J Med Chem, 2023).

Active and inactive are the calls of the source. No cut-off for these calls is given here.

For data set [1], the system named is RAW264.7. Nature of the data set: Cytotoxicity against mouse RAW264.7 cells assessed as cell viability at 20 uM incubated for 24 hrs by CCK8 assay. It counts as toxicity, cell-based. The conditions noted are these: raw264.7, 24 h.
The subject of data set [2] is RAW264.7. Nature of the data set: Anti-inflammatory activity in mouse RAW264.7 cells assessed as inhibition of LPS-induced NO production at 10 uM incubated for 24 hrs relative to control. In kind it is functional.
In data set [3] the test system is RAW264.7. Briefly: Anti-inflammatory activity in mouse RAW264.7 cells assessed as inhibition of LPS-induced NO production incubated for 24 hrs. It counts as functional, cell-based.
Data set [4] concerns RAW264.7. Nature of the data set: Anti-inflammatory activity in mouse RAW264.7 cells assessed as decrease in LPS-induced TNF-alpha level incubated for 24 hrs by ELISA. In kind it is functional, cell-based. The conditions noted are these: dose 5-20 µM. (ELISA stands for enzyme-linked immunosorbent assay.)
The test system of data set [5] is RAW264.7. Briefly: Anti-inflammatory activity in mouse RAW264.7 cells assessed as decrease in LPS-induced IL-1beta level incubated for 24 hrs by ELISA. It counts as functional, cell-based. The conditions noted are these: dose 5-20 µM.
In data set [6] the test system is RAW264.7. Briefly: Anti-inflammatory activity in mouse RAW264.7 cells assessed as decrease in LPS-induced IL-6 level incubated for 24 hrs by ELISA. It counts as functional, cell-based. The conditions noted are these: dose 5-20 µM.
Data set [7] has as its system RAW264.7. Nature of the data set: Anti-inflammatory activity in mouse RAW264.7 cells assessed as decrease in LPS-induced PGE2 level incubated for 24 hrs by ELISA. It counts as functional, cell-based. The conditions noted are these: dose 5-20 µM.
Data set [8] relates to RAW264.7. Briefly: Anti-inflammatory activity in mouse RAW264.7 cells assessed as decrease in LPS-induced IL-1beta mRNA level incubated for 24 hrs by RT-PCR analysis. It counts as functional, cell-based. As to conditions: dose 5-20 µM.
Data set [9] relates to RAW264.7. Nature of the data set: Anti-inflammatory activity in mouse RAW264.7 cells assessed as decrease in LPS-induced IL-6 mRNA level incubated for 24 hrs by RT-PCR analysis. In kind it is functional, cell-based. As to conditions: dose 5-20 µM.
Data set [10] concerns RAW264.7. Nature of the data set: Anti-inflammatory activity in mouse RAW264.7 cells assessed as decrease in LPS-induced COX-2 mRNA level incubated for 24 hrs by RT-PCR analysis. It counts as functional, cell-based. The conditions noted are these: dose 5-20 µM.
Data set [11] has as its system RAW264.7. Briefly: Anti-inflammatory activity in mouse RAW264.7 cells assessed as decrease in LPS-induced iNOS level at 5 to 20 uM incubated for 24 hrs by Western blot analysis. As to conditions: dose 5-20 µM. It counts as functional, cell-based. Background: A western blot detects proteins with antibodies after separation by electrophoresis.
The subject of data set [12] is RAW264.7. Nature of the data set: Anti-inflammatory activity in mouse RAW264.7 cells assessed as decrease in LPS-induced COX-2 level at 5 to 20 uM incubated for 24 hrs by Western blot analysis. In kind it is functional, cell-based. The conditions noted are these: dose 5-20 µM.
Data set [13] has as its system RAW264.7. Nature of the data set: Anti-inflammatory activity in LPS-stimulated mouse RAW264.7 cells assessed as increase in I-kappa-B-alpha level at 5 to 20 uM preincubated for 24 hrs followed by LPS treatment for 30 mins by Western blot analysis. In kind it is functional, cell-based. As to conditions: dose 5-20 µM, time 24.5 hrs.
The subject of data set [14] is RAW264.7. Briefly: Effect on total p65 level in cytoplasm of LPS-stimulated mouse RAW264.7 cells at 5 to 20 uM preincubated for 24 hrs followed by LPS treatment for 30 mins by Western blot analysis. As to conditions: dose 5-20 µM, time 24.5 hrs. It counts as functional, cell-based.
Data set [15] has as its system RAW264.7. Briefly: Anti-inflammatory activity in LPS-stimulated mouse RAW264.7 cells assessed as decrease in p65 level in nucleus at 5 to 20 uM preincubated for 24 hrs followed by LPS treatment for 30 mins by Western blot analysis. It counts as functional, cell-based. The conditions noted are these: dose 5-20 µM, time 24.5 hrs.
The subject of data set [16] is RAW264.7. Briefly: Anti-inflammatory activity in mouse RAW264.7 cells assessed as decrease in LPS-induced Akt phosphorylation at 5 to 20 uM preincubated for 24 hrs followed by LPS treatment for 30 mins by Western blot analysis. It counts as functional, cell-based. As to conditions: dose 5-20 µM, time 24.5 hrs.
The subject of data set [17] is RAW264.7. Briefly: Anti-inflammatory activity in mouse RAW264.7 cells assessed as decrease in LPS-induced ERK phosphorylation at 5 to 20 uM incubated for 24 hrs by Western blot analysis. It counts as functional, cell-based. The conditions noted are these: dose 5-20 µM.
The subject of data set [18] is RAW264.7. Briefly: Anti-inflammatory activity in mouse RAW264.7 cells assessed as decrease in LPS-induced p38 phosphorylation at 5 to 20 uM incubated for 24 hrs by Western blot analysis. The conditions noted are these: dose 5-20 µM. It counts as functional, cell-based.
The subject of data set [19] is RAW264.7. Briefly: Anti-inflammatory activity in mouse RAW264.7 cells assessed as decrease in LPS-induced JNK phosphorylation at 5 to 20 uM incubated for 24 hrs by Western blot analysis. In kind it is functional, cell-based. As to conditions: dose 5-20 µM.
Data set [20] has as its system Mus musculus. Briefly: Anti-inflammatory activity in endotoxemia ICR mouse model assessed as decrease in LPS-induced serum IL-6 level at 10 to 20 mg/kg, IG for 7 days consecutively followed by LPS treatment measured after 24 hrs by ELISA. It counts as functional, organism-based. As to conditions: dose 10-20 mg/kg, time 8.0 day.
For data set [21], the system named is Mus musculus. Briefly: Anti-inflammatory activity in endotoxemia ICR mouse model assessed as decrease in LPS-induced serum IL-1beta level at 10 to 20 mg/kg, IG for 7 days consecutively followed by LPS treatment measured after 24 hrs by ELISA. It counts as functional, organism-based. As to conditions: dose 10-20 mg/kg, time 8.0 day.
In data set [22] the test system is Mus musculus. Nature of the data set: Anti-inflammatory activity in endotoxemia ICR mouse model assessed as decrease in LPS-induced serum TNF-alpha level at 10 to 20 mg/kg, IG for 7 days consecutively followed by LPS treatment measured after 24 hrs by ELISA. It counts as functional, organism-based. The conditions noted are these: dose 10-20 mg/kg, time 8.0 day.

One may read the inhibition as the relative decrease from the control value, in per cent. What is called IC50 is the concentration that gives 50% inhibition. As for `Cc1ccc(/C=C/C(=O)N2CCN(C(=O)CC[C@@H](C)[C@H]3CC[C@H]4[C@@H]5[C@@H](O)C[C@@H]6C[C@H](O)CC[C@]6(C)[C@H]5CC[C@]34C)CC2)cc1`, the Activity entry with RAW264.7 [1] is “Non-Toxic”; in the data set on RAW264.7 [4], “Dose-Dependent Effect”; with RAW264.7 [5], “Dose-Dependent Effect”; in the data set with RAW264.7 [6], “Dose-Dependent Effect”; in the data set with RAW264.7 [7], “Dose-Dependent Effect”; in the data set on RAW264.7 [8], “Dose-Dependent Effect”. The Activity entry with RAW264.7 [9] and in the data set on RAW264.7 [10] was “Dose-Dependent Effect” each time. In addition, the inhibition at 10 µM in the data set on RAW264.7 [2] is > 50%. Besides, the IC50 in the data set with RAW264.7 [3] (RAW264.7, 24 h) stood at 7.7 µM. The inhibition entry with RAW264.7 [3] (dose 1.25-20 µM) is “Dose-Dependent Effect”. Further, the outcome in the data set on RAW264.7 [11], in the data set with RAW264.7 [12], with RAW264.7 [13], in the data set on RAW264.7 [15], in the data set on RAW264.7 [16] and in the data set on RAW264.7 [17] was Active. Besides, the outcome with RAW264.7 [18], in the data set with RAW264.7 [19], with Mus musculus [20], in the data set on Mus musculus [21] and in the data set with Mus musculus [22] was Active. The outcome in the data set with RAW264.7 [14] was inactive.
